The values that follow are results of earlier work, collected in US20220378803A1, “INJECTABLE COMPOSITIONS OF URSODEOXYCHOLIC ACID” (SHILPA MEDICARE LIMITED, priority 2019, published 2022).

With `C[C@H](CCC(=O)O)[C@H]1CC[C@H]2[C@@H]3[C@@H](O)C[C@@H]4C[C@H](O)CC[C@]4(C)[C@H]3CC[C@]12C` [UDCA, ursodeoxycholic acid], the solubility in water result was “practically insoluble”.
